Data on three compounds can be found in ChEMBL document CHEMBL1155738, “Suppressors of cancer cell proliferation from fig (Ficus carica) resin: isolation and structure elucidation” (J Nat Prod, 2001).

The test relates to Raji. Briefly: Cytotoxicity against human Raji cells at 25 to 50 ug/mL after 3 days by MTT assay. In kind it is functional, cell-based. Background: Tetrazolium dyes change colour on reduction, which living cells bring about.

Structures are written as SMILES. Calls of active or inactive are those of the source. The calls are words filed in the database; no cut-off is given here.

Turning to `CCCCCCCCCCCCCCCCCC(=O)OC[C@H]1O[C@@H](O[C@H]2CC[C@@]3(C)C(=CC[C@H]4[C@@H]5CC[C@H]([C@H](C)CC[C@H](CC)C(C)C)[C@@]5(C)CC[C@@H]43)C2)[C@H](O)[C@@H](O)[C@@H]1O`, the outcome was Active.

Turning to `CCCCCCCCCCCCCCCC(=O)OC[C@H]1O[C@@H](O[C@H]2CC[C@@]3(C)C(=CC[C@H]4[C@@H]5CC[C@H]([C@H](C)CC[C@H](CC)C(C)C)[C@@]5(C)CC[C@@H]43)C2)[C@H](O)[C@@H](O)[C@@H]1O`, the outcome was Active.

On to `CCCCC/C=C/C/C=C/CCCCCCCC(=O)OC[C@H]1O[C@@H](O[C@H]2CC[C@@]3(C)C(=CC[C@H]4[C@@H]5CC[C@H]([C@H](C)CC[C@H](CC)C(C)C)[C@@]5(C)CC[C@@H]43)C2)[C@H](O)[C@@H](O)[C@@H]1O`, for which the result was Active.
